This is an account of results in US11572590B2, “Methods for evaluating tumor cell spheroids using 3D microfluidic cell culture device” (Dana-Farber Cancer Institute, Inc., priority 2017, dated 2023).

What all share (assay): SelectScreen Kinase Profiling, single point inhibition and IC50 for off-target kinases
Format in all cases: biochemical

Experiment [1] concerns the target off-target kinases (Homo sapiens, UniProt Q5VT25). As to conditions: CDC42 BPA (MRCKA), ZLYTE, ATP Km app.
Experiment [2] deals with off-target kinases (Homo sapiens, UniProt Q08345). The conditions noted are these: DDR1, LanthaScreen Binding.
The target in experiment [3] is off-target kinases (Homo sapiens, UniProt Q9NY57). The conditions noted are these: STK32B (YANK2), LanthaScreen Binding. On the technique in general: TR-FRET usually uses a lanthanide donor and a delayed reading to cut background.
Experiment [4] concerns the target off-target kinases (Homo sapiens, UniProt P78527).
Experiment [5] addresses off-target kinases (Homo sapiens, UniProt O75582). As to conditions: RPS6KA5 (MSK1), ZLYTE, ATP Km app.
Experiment [6] concerns the target off-target kinases (Homo sapiens, UniProt Q8N5S9). As to conditions: CAMKK1 (CAMKKA), LanthaScreen Binding.
In experiment [7] the target is T1, off-target kinases (Homo sapiens, UniProt O75385).
T1 sequence (O75385 1-1050): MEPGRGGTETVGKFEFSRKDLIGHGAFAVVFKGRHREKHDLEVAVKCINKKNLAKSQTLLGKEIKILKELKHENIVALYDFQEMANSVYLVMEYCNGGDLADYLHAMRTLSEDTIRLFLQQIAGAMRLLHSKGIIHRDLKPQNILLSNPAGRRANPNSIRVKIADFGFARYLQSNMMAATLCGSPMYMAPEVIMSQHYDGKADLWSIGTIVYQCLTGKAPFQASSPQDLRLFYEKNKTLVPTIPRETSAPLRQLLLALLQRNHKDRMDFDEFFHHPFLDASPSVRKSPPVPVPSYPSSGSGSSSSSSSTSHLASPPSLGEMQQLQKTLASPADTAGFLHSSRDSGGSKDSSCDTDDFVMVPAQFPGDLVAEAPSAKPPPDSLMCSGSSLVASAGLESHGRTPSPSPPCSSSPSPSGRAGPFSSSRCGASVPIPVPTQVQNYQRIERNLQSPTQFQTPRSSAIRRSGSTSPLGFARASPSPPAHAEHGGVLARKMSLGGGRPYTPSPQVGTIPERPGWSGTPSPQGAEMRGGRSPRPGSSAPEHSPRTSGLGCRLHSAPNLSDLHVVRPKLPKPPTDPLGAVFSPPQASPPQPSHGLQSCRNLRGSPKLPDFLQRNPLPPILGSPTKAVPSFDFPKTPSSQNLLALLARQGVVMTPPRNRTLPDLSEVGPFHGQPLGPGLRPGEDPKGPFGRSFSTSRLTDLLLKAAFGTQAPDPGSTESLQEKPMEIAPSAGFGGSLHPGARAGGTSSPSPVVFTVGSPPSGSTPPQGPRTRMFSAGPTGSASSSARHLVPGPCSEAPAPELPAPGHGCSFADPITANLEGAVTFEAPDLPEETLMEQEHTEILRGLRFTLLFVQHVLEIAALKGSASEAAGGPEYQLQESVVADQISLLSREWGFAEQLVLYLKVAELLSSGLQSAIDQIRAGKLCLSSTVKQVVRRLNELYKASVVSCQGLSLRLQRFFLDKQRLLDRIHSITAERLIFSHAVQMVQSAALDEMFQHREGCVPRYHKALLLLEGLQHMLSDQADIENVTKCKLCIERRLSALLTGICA
The conditions noted are these: ULK1, LanthaScreen Binding.

In experiment [8] the target is off-target kinases (Homo sapiens, UniProt Q05397). As to conditions: PTK2 (FAK), ZLYTE, ATP Km app.

Like-named read-outs stand apart in the source and are kept apart here.

Sequence of off-target kinases (Homo sapiens, UniProt Q8N5S9) (Q8N5S9 whole entry): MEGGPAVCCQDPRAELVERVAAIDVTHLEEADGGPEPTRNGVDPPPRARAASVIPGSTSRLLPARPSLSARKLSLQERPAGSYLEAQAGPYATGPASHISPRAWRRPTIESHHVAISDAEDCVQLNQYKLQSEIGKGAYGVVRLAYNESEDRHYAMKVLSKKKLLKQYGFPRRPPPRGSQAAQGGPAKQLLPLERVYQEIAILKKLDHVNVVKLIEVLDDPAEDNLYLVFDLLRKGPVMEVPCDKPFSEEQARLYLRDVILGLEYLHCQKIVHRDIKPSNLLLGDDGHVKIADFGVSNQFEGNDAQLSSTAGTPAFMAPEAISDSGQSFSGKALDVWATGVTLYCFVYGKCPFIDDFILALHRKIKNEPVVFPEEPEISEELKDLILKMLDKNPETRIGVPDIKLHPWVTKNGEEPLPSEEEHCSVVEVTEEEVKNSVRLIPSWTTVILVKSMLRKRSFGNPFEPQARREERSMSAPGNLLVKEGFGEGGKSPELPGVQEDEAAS
Sequence of off-target kinases (Homo sapiens, UniProt O75582) (O75582 whole entry): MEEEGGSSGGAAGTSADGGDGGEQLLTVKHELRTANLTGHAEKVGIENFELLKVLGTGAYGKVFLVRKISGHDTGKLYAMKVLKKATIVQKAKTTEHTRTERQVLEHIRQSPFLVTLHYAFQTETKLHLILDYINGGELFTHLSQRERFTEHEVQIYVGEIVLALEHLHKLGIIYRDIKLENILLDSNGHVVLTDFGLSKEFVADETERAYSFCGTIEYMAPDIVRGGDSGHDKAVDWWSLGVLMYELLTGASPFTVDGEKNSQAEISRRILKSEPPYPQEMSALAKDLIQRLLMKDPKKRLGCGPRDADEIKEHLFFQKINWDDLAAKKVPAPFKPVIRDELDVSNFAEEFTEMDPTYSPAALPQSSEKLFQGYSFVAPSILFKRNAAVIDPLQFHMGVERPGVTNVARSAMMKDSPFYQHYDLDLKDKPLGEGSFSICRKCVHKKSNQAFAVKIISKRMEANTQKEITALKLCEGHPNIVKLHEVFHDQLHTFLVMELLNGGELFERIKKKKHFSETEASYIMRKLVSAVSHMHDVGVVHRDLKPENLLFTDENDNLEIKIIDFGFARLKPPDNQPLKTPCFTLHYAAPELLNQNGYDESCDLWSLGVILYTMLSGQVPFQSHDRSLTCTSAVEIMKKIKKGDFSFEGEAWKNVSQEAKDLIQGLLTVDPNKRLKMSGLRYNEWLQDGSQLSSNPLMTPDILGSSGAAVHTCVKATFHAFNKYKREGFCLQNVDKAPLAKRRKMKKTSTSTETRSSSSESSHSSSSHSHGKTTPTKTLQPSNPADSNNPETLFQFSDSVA
Sequence of off-target kinases (Homo sapiens, UniProt Q5VT25) (Q5VT25 whole entry): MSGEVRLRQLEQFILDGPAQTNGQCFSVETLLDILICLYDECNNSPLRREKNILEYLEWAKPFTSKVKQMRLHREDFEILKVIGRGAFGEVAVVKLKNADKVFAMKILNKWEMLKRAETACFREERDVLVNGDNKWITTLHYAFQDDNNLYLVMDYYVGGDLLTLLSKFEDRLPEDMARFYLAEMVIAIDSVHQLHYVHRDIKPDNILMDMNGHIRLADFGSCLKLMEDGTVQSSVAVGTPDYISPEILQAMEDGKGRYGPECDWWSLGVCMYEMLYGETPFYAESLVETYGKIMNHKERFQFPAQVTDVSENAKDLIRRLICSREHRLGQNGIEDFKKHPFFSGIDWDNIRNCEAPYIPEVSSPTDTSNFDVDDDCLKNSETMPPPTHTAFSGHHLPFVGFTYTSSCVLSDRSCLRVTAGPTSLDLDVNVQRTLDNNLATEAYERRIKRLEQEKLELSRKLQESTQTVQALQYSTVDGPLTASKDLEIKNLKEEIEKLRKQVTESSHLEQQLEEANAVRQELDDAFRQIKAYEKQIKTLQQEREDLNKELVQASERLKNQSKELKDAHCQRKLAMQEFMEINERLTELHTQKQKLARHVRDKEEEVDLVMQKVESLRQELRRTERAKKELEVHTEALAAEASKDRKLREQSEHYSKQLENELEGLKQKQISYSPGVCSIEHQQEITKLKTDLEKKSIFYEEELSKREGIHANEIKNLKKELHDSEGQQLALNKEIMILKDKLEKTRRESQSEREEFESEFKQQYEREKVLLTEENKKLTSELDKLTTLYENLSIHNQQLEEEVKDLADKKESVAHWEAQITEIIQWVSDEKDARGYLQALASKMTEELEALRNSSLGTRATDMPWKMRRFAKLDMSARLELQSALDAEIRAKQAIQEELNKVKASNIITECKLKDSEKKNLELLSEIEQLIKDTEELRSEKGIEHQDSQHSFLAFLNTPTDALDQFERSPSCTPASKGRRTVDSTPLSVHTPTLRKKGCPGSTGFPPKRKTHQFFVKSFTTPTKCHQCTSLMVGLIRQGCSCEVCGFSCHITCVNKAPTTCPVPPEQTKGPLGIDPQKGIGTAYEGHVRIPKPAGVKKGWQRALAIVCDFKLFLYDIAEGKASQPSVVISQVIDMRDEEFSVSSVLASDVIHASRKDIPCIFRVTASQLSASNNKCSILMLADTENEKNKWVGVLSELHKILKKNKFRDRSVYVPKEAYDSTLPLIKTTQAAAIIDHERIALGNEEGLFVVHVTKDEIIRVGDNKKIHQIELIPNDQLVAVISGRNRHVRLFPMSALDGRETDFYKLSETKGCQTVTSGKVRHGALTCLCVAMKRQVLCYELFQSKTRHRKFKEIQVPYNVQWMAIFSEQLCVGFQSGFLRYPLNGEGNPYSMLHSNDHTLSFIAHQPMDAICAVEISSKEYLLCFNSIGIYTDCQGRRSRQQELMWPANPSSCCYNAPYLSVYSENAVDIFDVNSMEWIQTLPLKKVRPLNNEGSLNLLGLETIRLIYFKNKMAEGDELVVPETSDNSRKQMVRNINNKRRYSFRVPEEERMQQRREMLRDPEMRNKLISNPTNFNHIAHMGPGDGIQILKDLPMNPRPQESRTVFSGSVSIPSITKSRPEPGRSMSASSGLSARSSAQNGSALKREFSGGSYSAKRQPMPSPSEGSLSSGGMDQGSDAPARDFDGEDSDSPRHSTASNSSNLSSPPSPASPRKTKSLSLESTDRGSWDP
Sequence of off-target kinases (Homo sapiens, UniProt Q9NY57) (Q9NY57 whole entry): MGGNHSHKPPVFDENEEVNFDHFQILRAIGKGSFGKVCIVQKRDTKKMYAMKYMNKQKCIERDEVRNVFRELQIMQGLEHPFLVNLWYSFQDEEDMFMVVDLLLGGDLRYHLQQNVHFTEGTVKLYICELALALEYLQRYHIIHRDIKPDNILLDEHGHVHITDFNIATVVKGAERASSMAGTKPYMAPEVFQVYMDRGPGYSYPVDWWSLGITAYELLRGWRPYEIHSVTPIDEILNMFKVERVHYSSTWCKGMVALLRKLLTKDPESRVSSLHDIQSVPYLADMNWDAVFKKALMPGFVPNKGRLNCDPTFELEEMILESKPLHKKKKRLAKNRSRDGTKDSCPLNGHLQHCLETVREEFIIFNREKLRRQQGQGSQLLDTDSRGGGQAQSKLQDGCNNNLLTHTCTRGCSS
Sequence of off-target kinases (Homo sapiens, UniProt Q08345) (Q08345 19-913): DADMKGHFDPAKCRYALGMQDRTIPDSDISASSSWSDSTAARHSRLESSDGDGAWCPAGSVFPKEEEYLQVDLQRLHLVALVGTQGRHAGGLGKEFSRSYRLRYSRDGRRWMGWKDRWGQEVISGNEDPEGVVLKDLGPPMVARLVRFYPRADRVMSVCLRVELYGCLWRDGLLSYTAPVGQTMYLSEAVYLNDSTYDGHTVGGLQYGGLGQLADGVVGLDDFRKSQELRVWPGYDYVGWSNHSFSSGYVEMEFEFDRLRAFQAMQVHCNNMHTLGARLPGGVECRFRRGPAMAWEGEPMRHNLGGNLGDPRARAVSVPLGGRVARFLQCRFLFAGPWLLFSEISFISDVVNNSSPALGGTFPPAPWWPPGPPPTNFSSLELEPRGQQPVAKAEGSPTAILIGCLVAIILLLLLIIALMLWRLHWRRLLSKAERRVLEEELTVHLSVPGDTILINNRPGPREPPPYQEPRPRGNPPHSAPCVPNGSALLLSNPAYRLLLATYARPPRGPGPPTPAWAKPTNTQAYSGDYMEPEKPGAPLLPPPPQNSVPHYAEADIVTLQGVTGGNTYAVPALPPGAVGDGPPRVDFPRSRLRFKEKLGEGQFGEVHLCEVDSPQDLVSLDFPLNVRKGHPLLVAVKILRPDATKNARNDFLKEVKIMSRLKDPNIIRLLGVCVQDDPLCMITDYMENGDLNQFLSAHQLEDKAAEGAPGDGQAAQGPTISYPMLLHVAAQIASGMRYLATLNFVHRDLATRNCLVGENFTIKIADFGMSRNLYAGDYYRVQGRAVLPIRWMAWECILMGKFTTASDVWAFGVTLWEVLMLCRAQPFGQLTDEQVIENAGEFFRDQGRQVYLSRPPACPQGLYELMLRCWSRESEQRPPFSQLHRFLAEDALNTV

By inhibition is commonly meant the relative decrease from the control value, in per cent. As for `N#Cc1cc(-c2ncnc(Nc3ccc(N4CCN(C5COC5)CC4)cc3)n2)ccc1OC1CCOCC1` [Compound 1, 5-(4-((4-(4-(oxetan-3-yl)piperazin-1-yl)phenyl)amino)-1,3,5-triazin-2-yl)-2-((tetrahydro-2H-pyran-4-yl)oxy)benzonitrile], the inhibition at off-target kinases [1] (read-out: % Inhibition 1) is 4%; at off-target kinases [1] (read-out: % Inhibition 2), 4%; on off-target kinases [1] (read-out: % Inhibition Avg), 4%; at off-target kinases [2] (read-out: % Inhibition 1) it was 3%; at off-target kinases [2] (read-out: % Inhibition 2), 2%; on off-target kinases [2] (read-out: % Inhibition Avg), 2%. Also, the inhibition on off-target kinases [3] (read-out: % Inhibition 1) was 1%; on off-target kinases [3] (read-out: % Inhibition 2) it was 8%; on off-target kinases [3] (read-out: % Inhibition Avg), 5%; at off-target kinases [4] (DNA-PK, ZLYTE, ATP Km app, read-out: % Inhibition 1), 2%; at off-target kinases [4] (DNA-PK, ZLYTE, ATP Km app, read-out: % Inhibition 2) it was -4%; on off-target kinases [4] (read-out: % Inhibition Avg), -1%. Further, the inhibition on off-target kinases [5] (read-out: % Inhibition 1) was 6%; at off-target kinases [5] (read-out: % Inhibition 2), 3%; at off-target kinases [5] (read-out: % Inhibition Avg), 4%; at off-target kinases [6] (read-out: % Inhibition 1), 2%; at off-target kinases [6] (read-out: % Inhibition 2), -1%; on off-target kinases [6] (read-out: % Inhibition Avg) it was 0%. The inhibition on off-target kinases [7] (read-out: % Inhibition 1) was found to be 91%; at off-target kinases [7] (read-out: % Inhibition 2), 92%; at off-target kinases [7] (read-out: % Inhibition Avg) it was 92%; at off-target kinases [8] (read-out: % Inhibition 1), 0%; on off-target kinases [8] (read-out: % Inhibition 2), 2%; at off-target kinases [8] (read-out: % Inhibition Avg), 1%.
